Measured values taken from patent publication US7074422B2, “Fungicidal mixtures” (BASF Aktiengesellschaft, priority 2002, dated 2006).

Test system: Plasmopara viticola
Test: Activity against Peronospora of vines caused by Plasmopara viticola (persistence test on potted vines)
Type: in vivo
Conditions: individual active compound, vines "Müller-Thurgau", inoculated 3 days after spraying
Procedure: The active compounds were prepared separately or together as a stock solution comprising 0.25% of active compound in acetone or DMSO. 1% by weight of the emulsifier Uniperol® EM (wetting agent having emulsifying and dispersing action based on ethoxylated alkylphenols) was added, and the mixture was diluted with water to the desired concentration.
Evaluation is carried out by determining the infected leaf areas in percent. These percentages are converted into efficacies. The expected efficacies of the active compound mixtures are determined using Colby's formula [R. S. Colby, Weeds 15, 20-22 (1967)] and compared with the observed efficacies.
Colby's formula: E=x+y−x.y/100 • E expected efficacy, expressed in % of the untreated control, when using the mixture of the active compounds A and B at the concentrations a and b • x efficacy, expressed in % of the untreated control, when using active compound A at a concentration of a • y efficacy, expressed in % of the untreated control, when using active compound B at a concentration of b
The efficacy (E) is calculated as follows using Abbot's formula: E=(1−α/β)·100 • α corresponds to the fungal infection of the treated plants in % and • β corresponds to the fungal infection of the untreated (control) plants in %
An efficacy of 0 means that the infection level of the treated plants corresponds to that of the untreated control plants; an efficacy of 100 means that the treated plants were not infected.
Leaves of potted vines of the cultivar “Müller-Thurgau” were sprayed to runoff point with an aqueous suspension having the concentration of active compound stated below. To be able to assess the persistence of the substances, the plants were, after the spray coating had dried on, placed in a green house for 3 days. Only then were the leaves inoculated with an aqueous zoospore suspension of Plasmopara viticola. The vines were then initially placed in a water-vapor-saturated chamber at 24° C. for 48 hours and then in a greenhouse at 20-30° C. for 5 days. After this period of time, the plants were again placed in a moist chamber for 16 hours to promote sporangiophore eruption. The extent to which the infection had developed on the undersides of the leaves was then determined visually.

Row | Compound | Efficacy in % of the untreated control (30 ppm in the spray liquor) | Efficacy in % of the untreated control (3.75 ppm in the spray liquor) | Efficacy in % of the untreated control (7.5 ppm in the spray liquor) | Efficacy in % of the untreated control (15 ppm in the spray liquor)
1 | N#Cc1sc2c(=O)c3ccccc3c(=O)c=2sc1C#N [II, dithianon] | 89 % of the untreated control | – | – | –
2 | CCCOC(=O)NCCN(C)C [I, propyl (2-dimethylaminoethyl)carbamate] | 0 % of the untreated control | 0 % of the untreated control | 0 % of the untreated control | 0 % of the untreated control
